Data as given in article PMC12505967, “Inhibition of the assembly of Plasmodium Hsp70-1 and Hsp40 complex blocks DNA replication by destabilizing ribonucleotide reductase subunit-2” (mBio, 2025).

Assays:
PfHsp70-1 + PfYdj1 = biological target: T1, PfHsp70-1 + PfYdj1 (Plasmodium falciparum, UniProt Q8IB24); test: EnzChek phosphate ATPase assay; assay type: biochemical; conditions: inhibits PfYdj1-stimulated ATP hydrolysis; 1 and 20 µM compound (21 µM in figure legend); 50 µM ATP, 2 µM each protein, 2 mM MgCl2, pH 7.5, 37°C
T1 construct: gene PF3D7_0818900; both full length, N-terminal His6 tag (pET28a), E. coli, Ni-NTA; tags kept; with HSP40, subfamily A

PfHsp70-1 = biological target: T2, PfHsp70-1 (Plasmodium falciparum, UniProt Q8IB24); assay type: biochemical; conditions: basal ATPase without cochaperone; 50 µM ATP, 2 µM protein, 2 mM MgCl2, pH 7.5, 37°C
T2 construct: gene PF3D7_0818900; full length, N-terminal His6 tag (pET28a), E. coli Rosetta (DE3), Ni-NTA; tag kept

[1] = biological target: Recombinant PfHsp70-1 (His6-tagged, purified) (Plasmodium falciparum 3D7) (UniProt Q8IB24); conditions: scale: µM min^−1 per µM concentration of the enzyme

Molecule: CC1=C(C(=O)OCc2ccccc2)C(c2ccc(-c3ccccc3)cc2)NC(=O)N1CCCCCC(=O)O (stereo not drawn) [116-9e]
- EnzChek phosphate ATPase assay (PfHsp70-1 + PfYdj1): observed a reduced stimulation of PfYdj1-mediated ATP hydrolysis of PfHsp70-1 in a dose-dependent manner

Molecule: Nc1ncnc2c1ncn2[C@@H]1O[C@H](COP(=O)(O)OP(=O)(O)OP(=O)(O)O)[C@@H](O)[C@H]1O [ATP]
- EnzChek phosphate ATPase assay (PfHsp70-1): PfHsp70-1 showed a basal level of ATPase activity

B1: Recombinant PfSis1 (His6-tagged, purified) (natural protein)
chain: MGKDYYSILGVSRDCTTNDLKKAYRKLAMMWHPDKHNDEKSKKEAEEKFKNIAEAYDVLADEEKRKIYDTYGEEGLKGSIPTGGNTYVYSGVDPSELFSRIFGSDGQFSFTSTFDEDFSPFSTFVNMTSRKSRPSTTTNINTNNYNKPATYEVPLSLSLEELYSGCKKKLKITRKRFMGTKSYEDDNYVTIDVKAGWKDGTKITFYGEGDQLSPMAQPGDLVFKVKTKTHDRFLRDANHLIYKCPVPLDKALTGFQFIVKSLDNRDINVRVDDIVTPKSRKIVAKEGMPSSKYPSMKGDLIVEFDIVFPKSLTSEKKKIIRETLANTF
- PfSis1-induced rate of ATP hydrolysis of PfHsp70-1 without and with 1 µM and 20 µM 116-9e (0.37 without, 0.322 at 1 µM, 0.087 at 20 µM) [1]: 0.37
